Assay results as given in patent EP1704862A1, “2,5-bis(tetrahydroxybutyl)pyrazines for the treatment of osteoarthritis and rheumatoid arthritis” (ROTTAPHARM S.P.A., priority 2005, dated 2006).
Like-named read-outs stand apart in the source and are kept apart here.

Assays:
Solubility in water = type: physicochemical; conditions: pH 7.4, aqueous buffer
[1] = Metabolic stability in rat liver S9 fraction; type: in vitro ADME; conditions: rat liver S9, 1µM, average of two experiments
Excerpt: (§1) Metabolic stability for the compounds of the invention has been assessed using rat, dog and human liver S9 fractions, using the same methods as described in the literature (R Singh et al., Rapid Commun. Mass Spectrom., 10, 9, 1019-26, 1996).
(§2) Permeability and metabolic stability data are the average of two experiments.

NO Synthesis [2] = test: IL-1β induced NO synthesis in chondrocyte culture (nitrite, DAN fluorometric method); type: cell-based, New Zealand white rabbits; conditions: Oryctolagus cuniculus, rabbit articular chondrocytes, stimulation with 0.3 ng/mL of IL-1β, 24 h, read-out: NO Synthesis inhibitory activity IC50
Description: (§3) Inhibitory effects of compounds of this invention were assessed according to the following in vitro assay:
(§4) Normal articular chondrocytes were obtained from young New Zealand white rabbits. Shoulders, femoral heads and knees were detached and transferred under a laminar flow hood. The articular cartilage was removed from the articular surfaces under sterile conditions. Tissue fragments were successively digested in an incubator (37°C, 5% CO2/95% air) with enzymes dissolved in DMEM plus 50 µg/ml gentamicin and sterile filtered. The three-step digestion was carried out with 0.05% testicular hyaluronidase for 15 min, followed by 0.25% trypsin for 30 min, and 0.2% clostridium collagenase for 90 min. […]
NO production by chondrocytes was measured as nitrite, a stable end product and a reliable indicator of NO synthesis. Nitrites released in the culture supernatant were quantified with the fluorometric method according to Misko (Misko TP, Schilling RJ, Salvemini D, Moore WM, Currie MG. Anal Biochem; 214:11-16, 1993). […] The intensity of fluorescence was recorded in a 96-well plate (optiplate, Packard) with a plate reader (HTS7000 plus, Perkin Elmer) with excitation at 360 nm and emission read at 465 nm. Nitrite concentrations were calculated from a standard curve of sodium nitrite ranging from 10 to 100 ng/ml.

[3] = Metabolic stability in human liver S9 fraction; type: in vitro ADME; conditions: human liver S9, 1µM, average of two experiments
Excerpt: as §1, §2

PGE2 Synthesis [4] = test: IL-1β induced PGE2 synthesis in chondrocyte culture (RIA); type: cell-based, New Zealand white rabbits; conditions: Oryctolagus cuniculus, rabbit articular chondrocytes, stimulation with 0.3 ng/mL of IL-1β, 24 h, read-out: PGE2 Synthesis inhibitory activity IC50
Description: as §3
as §4, with “min. At the end of the incubation period, chondrocyte suspension was two-fold diluted with DMEM plus 10% FCS, passed through a 200 µm and a 50 µm nylon sieves to remove debris and undigested matrix particles.” for “min.”
PGE2 released into the culture medium was determined with a RadioImmunoAssay (RIA) performed according to the instructions of the PGE2 antiserum manufacturer (Sigma). […] The supernatant was counted in 7 ml of Ultima-Gold MV® and the amount of radioactivity measured in a Packard Tricarb β-counter. […]

[5] = Apparent permeability (Papp) across TC-7 cell monolayer; type: in vitro ADME; conditions: human, Caco-2; TC-7 cells, pH 6.5/7.4, average of two experiments
Excerpt: The preferred route of administration for the compounds of the invention is oral, therefore the compound should have suitable permeability across the human intestinal epithelia to allow absorption into the circulation. However, also when the parenteral route is chosen for administration, an effective compound must be sufficiently permeable across biological membranes to reach the site/s of action. The permeability of compounds of formula (I) has been assessed in vitro using the apparent permeability coefficients approach (Papp) (Pharmacokinetics Optimization in Drug Research: biological, physicochemical and computational strategies; Bernard Testa, Han van de Waterbeemd, 2001, Wiley). The TC-7 clone was used instead of the Caco-2 cell line for this assessment, since it was reported that the two human intestinal epithelial cell lines are equivalent as far as drug transport characteristics are concerned and thus can be used interchangeably to predict absorption in humans after oral administration (MC Gres et al., Pharm. Res., 15, 5, 726-33, 1998); the experimental work was carried out as described in the mentioned literature.
as §2

[6] = Metabolic stability in dog liver S9 fraction; type: in vitro ADME; conditions: dog liver S9, 1µM, average of two experiments
Excerpt: as §1, §2

[7] = system: IL-1β induced GAG release; test: IL-1β induced GAG release in chondrocyte culture (DMB assay); type: cell-based, New Zealand white rabbits; conditions: Oryctolagus cuniculus, rabbit articular chondrocytes, stimulation with 0.3 ng/mL of IL-1β, 24 h, read-out: GAG Release inhibitory activity IC50
Description: as §3
as §4, with “min. At the end of the incubation period, chondrocyte suspension was two-fold diluted with DMEM plus 10% FCS, passed through a 200 µm and a 50 µm nylon sieves to remove debris and undigested matrix particles.” for “min.”
Proteoglycans associated to cell monolayer were quantified with Dimethylmethylene blue (DMB) assay. […] The absorbance was read within 20 min at 590 nm with a HTS7000plus plate reader. […] The optical density was measured at 590 nm using a plate reader HTS7000plus (Perkin Elmer).

NO Synthesis [8] = conditions: Human articular chondrocytes, IL-1β induced; Free Rad.Biol.Med. 33, 1097-1105, 2002; read-out: NO Synthesis inhibitory activity IC50; cited from earlier work
PGE2 Synthesis [9] = conditions: Human articular chondrocytes, IL-1β induced; Free Rad.Biol.Med. 33, 1097-1105, 2002; read-out: PGE2 Synthesis inhibitory activity IC50; cited from earlier work
GAG Release = conditions: Human articular cartilage, IL-1β induced; JPET, 308, 767-773, 2004; read-out: GAG Release inhibitory activity IC50; cited from earlier work
NO Synthesis [10] = conditions: Bovine articular cartilage, IL-1β induced; Osteoarthritis and Cartilage, 2000, 8(6), 434; read-out: NO Synthesis inhibitory activity IC50; cited from earlier work
PGE2 Synthesis [11] = conditions: Human chondrocytes, IL-1β induced; Osteoarthritis and Cartilage, 2000, 8(6), 434; read-out: PGE2 Synthesis inhibitory activity IC50; cited from earlier work

With `OC[C@@H](O)[C@@H](O)[C@H](O)c1cnc([C@@H](O)[C@H](O)[C@H](O)CO)cn1` [Compound 1.1, Bis-(1R, 1'R, 2S, 2'S, 3R, 3'R)-1,2,3,4-butanetetrol-1,1'-(2,5-pyrazinediyl)] the solubility (Solubility in water) was at most 100 mM, the “In vitro metabolism Parent remaining (%) Test concentration 1µM Rat” value [1] was 110% and the IC50 (NO Synthesis [2]) was 8 µM. The “In vitro metabolism Parent remaining (%) Test concentration 1µM Human” value [3] was 108%, the IC50 (PGE2 Synthesis [4]) was 4 µM and the Papp A→B [5] was 113 ×10⁻⁶ cm/s. The Papp B→A [5] was 72.9 ×10⁻⁶ cm/s, the “In vitro metabolism Parent remaining (%) Test concentration 1µM Dog” value [6] was 96% and the IC50 [7] was 46 µM.
In the case of `O=C(O[C@@H]1Cc2c(O)cc(O)cc2O[C@@H]1c1cc(O)c(O)c(O)c1)c1cc(O)c(O)c(O)c1` [EGCG, epigallocatechin gallate], the IC50 (NO Synthesis [8]) is listed as about 200 µM, the IC50 (PGE2 Synthesis [9]) is listed as over 200 µM and the IC50 (GAG Release) is listed as about 100 µM.
In the case of `COc1nccc(-c2c(-c3ccc(F)cc3)ncn2C2CCNCC2)n1` [SB-242235], the IC50 (NO Synthesis [10]) is listed as 1 µM and the IC50 (PGE2 Synthesis [11]) is listed as 1 to 3 µM.
